In the NIST ThermoML archive (doi:10.1021/je8009336):

Tests used:
[1] = Liquid; for mass density: Vibrating tube method; for speed of sound: Vibrating Tube Densimeter
[2] = refractive index (Na D-line) (dimensionless); conditions: 101.33 kPa, Liquid, Standard Abbe refractometry
[3] = xn = mol fraction of the nth substance listed; conditions: 313.15 K, 101 kPa, Liquid; for speed of sound: Vibrating Tube Densimeter; for mass density: Vibrating tube method
[4] = refractive index (Na D-line) (dimensionless); xn = mol fraction of the nth substance listed; conditions: 313.15 K, 101 kPa, Liquid, Standard Abbe refractometry

c1ccccc1 [benzene]
[1]
Conditions | mass density, 298.15 K [kg/m3] | mass density, 313.15 K [kg/m3] | speed of sound, 313.15 K [m/s]
101 kPa | – | 857.5 | 1230.5
101.33 kPa | 873.5 | – | –

[2]
Conditions | refractive index
298.15 K | 1.49775
313.15 K | 1.48777

c1ccccc1 [benzene] + C1CCCC1
x2 = 0
Conditions | mass density [kg/m3] | refractive index | speed of sound [m/s]
[3] | 857.5 | – | 1230.5
[4] | – | 1.48777 | –

c1ccccc1 [benzene] + C1CCCCC1
x2 = 0
Conditions | mass density [kg/m3] | refractive index | speed of sound [m/s]
[3] | 857.5 | – | 1230.5
[4] | – | 1.48777 | –

c1ccccc1 [benzene] + CC1CCCCC1
x2 = 0
Conditions | mass density [kg/m3] | refractive index | speed of sound [m/s]
[3] | 857.5 | – | 1230.5
[4] | – | 1.48777 | –

C1CCCCC1 [cyclohexane]
[1]
Conditions | mass density, 298.15 K [kg/m3] | mass density, 313.15 K [kg/m3] | speed of sound, 313.15 K [m/s]
101 kPa | – | 759.6 | 1181.7
101.33 kPa | 773.8 | – | –

[2]
Conditions | refractive index
298.15 K | 1.42353
313.15 K | 1.41513

C1CCCCC1 [cyclohexane] + CCc1ccccc1
x1 = 1
Conditions | mass density [kg/m3] | refractive index | speed of sound [m/s]
[3] | 759.6 | – | 1181.7
[4] | – | 1.41513 | –

C1CCCCC1 [cyclohexane] + Cc1ccccc1
Conditions | mass density, [3] [kg/m3] | refractive index, [4] | speed of sound, [3] [m/s]
x1 = 0.0377 | 844.4 | 1.48212 | 1236.8
x1 = 0.0967 | 838.2 | 1.47761 | 1230
x1 = 0.1945 | 828.5 | 1.47007 | 1220.1
x1 = 0.2433 | 823.4 | 1.46621 | 1215.4
x1 = 0.3985 | 808.6 | 1.45475 | 1202.3
x1 = 0.5672 | 793.4 | 1.44276 | 1191.4
x1 = 0.5965 | 790.9 | 1.44073 | 1189.8
x1 = 0.7019 | 781.9 | 1.43356 | 1185.1
x1 = 0.7958 | 774.4 | 1.4276 | 1182.2
x1 = 0.9011 | 766.5 | 1.42097 | 1181.2
x1 = 0.95 | 763 | 1.41807 | 1180.9
x1 = 1 | 759.6 | 1.41513 | 1181.7

C1CCCCC1 [cyclohexane] + c1ccccc1
Conditions | mass density, [3] [kg/m3] | refractive index, [4] | speed of sound, [3] [m/s]
x1 = 0.0819 | 846.2 | 1.47958 | 1218.9
x1 = 0.1282 | 840.2 | 1.47489 | 1213.2
x1 = 0.2087 | 830.1 | 1.46761 | 1204.5
x1 = 0.2898 | 820.5 | 1.46073 | 1197
x1 = 0.4018 | 808.5 | 1.45171 | 1188.6
x1 = 0.5047 | 798.3 | 1.44414 | 1183.3
x1 = 0.6058 | 789.1 | 1.43724 | 1179.8
x1 = 0.7 | 780.9 | 1.43118 | 1177.7
x1 = 0.7989 | 773.2 | 1.42538 | 1177.3
x1 = 0.9059 | 765.7 | 1.41966 | 1178.6
x1 = 0.9505 | 762.7 | 1.41753 | 1179.7
x1 = 1 | 759.6 | 1.41513 | 1181.7

C1CCCC1 [cyclopentane]
[1]
Conditions | mass density, 298.15 K [kg/m3] | mass density, 313.15 K [kg/m3] | speed of sound, 313.15 K [m/s]
101 kPa | – | 725 | 1130
101.33 kPa | 740 | – | –

[2]
Conditions | refractive index
298.15 K | 1.40342
313.15 K | 1.39456

C1CCCC1 [cyclopentane] + CCc1ccccc1
Conditions | mass density, [3] [kg/m3] | refractive index, [4] | speed of sound, [3] [m/s]
x1 = 0.0393 | 845.5 | 1.48234 | 1251.9
x1 = 0.083 | 841.2 | 1.47928 | 1246.4
x1 = 0.1874 | 830.5 | 1.4714 | 1232.9
x1 = 0.2847 | 820 | 1.46405 | 1219.9
x1 = 0.3689 | 810.5 | 1.45715 | 1209.3
x1 = 0.541 | 789.9 | 1.44226 | 1186.8
x1 = 0.6281 | 778.7 | 1.43421 | 1175.5
x1 = 0.687 | 770.9 | 1.42853 | 1168
x1 = 0.7988 | 755.3 | 1.41702 | 1154
x1 = 0.898 | 740.8 | 1.40651 | 1141.9
x1 = 0.9475 | 733.2 | 1.40072 | 1135.9
x1 = 1 | 725 | 1.39456 | 1130

C1CCCC1 [cyclopentane] + Cc1ccccc1
Conditions | mass density, [3] [kg/m3] | refractive index, [4] | speed of sound, [3] [m/s]
x1 = 0.0418 | 843.6 | 1.48201 | 1235.6
x1 = 0.0924 | 838 | 1.47801 | 1228.7
x1 = 0.1907 | 826.8 | 1.46979 | 1215.8
x1 = 0.2717 | 817.3 | 1.46313 | 1205.2
x1 = 0.3579 | 807 | 1.45562 | 1194.8
x1 = 0.4944 | 790.4 | 1.44336 | 1178.6
x1 = 0.5862 | 778.9 | 1.43503 | 1168.4
x1 = 0.6895 | 765.8 | 1.42526 | 1157.4
x1 = 0.7951 | 752.2 | 1.41512 | 1147.3
x1 = 0.8958 | 738.9 | 1.40537 | 1138.3
x1 = 0.9456 | 732.3 | 1.40037 | 1134.2
x1 = 1 | 725 | 1.39456 | 1130

C1CCCC1 [cyclopentane] + c1ccccc1
Conditions | mass density, [3] [kg/m3] | refractive index, [4] | speed of sound, [3] [m/s]
x1 = 0.0366 | 852 | 1.48417 | 1224.4
x1 = 0.0941 | 843.4 | 1.47833 | 1215.7
x1 = 0.1945 | 828.6 | 1.46795 | 1200.6
x1 = 0.2706 | 817.8 | 1.46049 | 1190.2
x1 = 0.3937 | 800.7 | 1.44843 | 1175.5
x1 = 0.4893 | 787.8 | 1.43934 | 1165
x1 = 0.5917 | 774.4 | 1.42988 | 1155.3
x1 = 0.6893 | 762.1 | 1.4211 | 1147.2
x1 = 0.7983 | 748.6 | 1.41158 | 1139.7
x1 = 0.8971 | 736.8 | 1.40315 | 1134.2
x1 = 0.9471 | 731 | 1.39904 | 1132
x1 = 1 | 725 | 1.39456 | 1130
